# Data taken from publication PMC8550792, “Evolution of kinase polypharmacology across HSP90 drug discovery” (Cell Chemical Biology, 2021).
# Values joined by “and” are separate entries in the source; they are usually repeats but may differ in a detail not shown here. Equal entries are not always repeated. Where two headings read alike, the source gives them in different places.
# Columns and labels:
# [1] = molecular target: ABL1 (Homo sapiens, UniProt P00519); assay: HotSpot in vitro kinase radiometric assay; type: biochemical; parameters: purchased Reaction Biology (HotSpot contract assay)
# [2] = molecular target: T1, TRKA-TFG (TRK-T3) (Homo sapiens, UniProt P04629+Q92734); assay: HotSpot in vitro kinase radiometric assay; type: biochemical
# T1 construct: purchased Reaction Biology (HotSpot contract assay)
# [3] = test system: HSP90AB1; parameters: method as in ChEMBL23 (accessed: 23/08/2018); settings: average of reported values; ref ChEMBL23 (accessed: 23/08/2018); cited from earlier work
# [4] = molecular target: T2, FYN (Homo sapiens, UniProt P06241); assay: HotSpot in vitro kinase radiometric assay; type: biochemical; settings: read-out: % inhibition at 10 uM: FYN; 10 μM; Fig 6C median ± standard deviation (n = 2)
# T2 construct: purchased Reaction Biology (HotSpot contract assay)
# [5] = molecular target: T3, BLK (Homo sapiens, UniProt P51451); assay: HotSpot in vitro kinase radiometric assay; type: biochemical; settings: read-out: % inhibition at 10 uM: BLK; 10 μM; Fig 6C median ± standard deviation (n = 2)
# T3 construct: purchased Reaction Biology (HotSpot contract assay)
# Procedure, shortened: (§1)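 Off-target screen in a radioisotope catalytic assay: test compounds incubated with each kinase, its substrate, cofactors and 33P- or 32P-labelled ɣ-ATP. Filters retaining labelled product gave the signal.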
# [6] = molecular target: T4, PDK2/PDHK2 (Homo sapiens, UniProt Q15119); assay: HotSpot in vitro kinase radiometric assay; type: biochemical; settings: read-out: % inhibition at 10 uM: PDK2; 10 μM; Fig 6C median ± standard deviation (n = 2)
# T4 construct: purchased Reaction Biology (HotSpot contract assay)
# Procedure, shortened: as §1
# [7] = molecular target: T5, PDK4/PDKH4 (Homo sapiens, UniProt Q16654); assay: HotSpot in vitro kinase radiometric assay; type: biochemical; settings: read-out: % inhibition at 10 uM: PDK4; 10 μM; Fig 6C median ± standard deviation (n = 2)
# T5 construct: purchased Reaction Biology (HotSpot contract assay)
# Procedure, shortened: as §1
# [8] = molecular target: T6, LYN B (Homo sapiens, UniProt P07948); assay: HotSpot in vitro kinase radiometric assay; type: biochemical; settings: 10 μM, Fig 6C median ± standard deviation (n = 2)
# T6 construct: purchased Reaction Biology (HotSpot contract assay)
# Procedure, shortened: as §1
# [9] = molecular target: T7, c-Src (Homo sapiens, UniProt P12931); assay: HotSpot in vitro kinase radiometric assay; type: biochemical; settings: read-out: % inhibition at 10 uM: SRC; 10 μM; Fig 6C median ± standard deviation (n = 2)
# T7 construct: purchased Reaction Biology (HotSpot contract assay)
# Procedure, shortened: as §1
# [10] = molecular target: T8, 382 unique human kinases (Homo sapiens, UniProt Q00534); assay: biochemical; type: biochemical; settings: CDK6/cyclin D3, 10 uM
# T8 construct: purchased Reaction Biology (HotSpot contract assay)
# [11] = molecular target: T9, 382 unique human kinases (Homo sapiens, UniProt P24941); assay: biochemical; type: biochemical; settings: 10 uM; for remaining activity at 10 µM: read-out: % Enzyme Activity (relative to DMSO controls)
# T9 construct: purchased Reaction Biology (HotSpot contract assay)
# [12] = molecular target: T10, 382 unique human kinases (Homo sapiens, UniProt Q9UIK4); assay: biochemical; type: biochemical; settings: DAPK2, 10 uM; for remaining activity at 10 µM: read-out: % Enzyme Activity (relative to DMSO controls)
# T10 construct: purchased Reaction Biology (HotSpot contract assay)
# [13] = molecular target: T11, 382 unique human kinases (Homo sapiens, UniProt P50750); assay: biochemical; type: biochemical; settings: CDK9/cyclin T1, 10 uM; for remaining activity at 10 µM: read-out: % Enzyme Activity (relative to DMSO controls)
# T11 construct: purchased Reaction Biology (HotSpot contract assay)
# [14] = molecular target: T12, 382 unique human kinases (Homo sapiens, UniProt P11802); assay: biochemical; type: biochemical; settings: CDK4/cyclin D3, [ATP] 5 µM, compound 10 uM; for remaining activity at 10 µM: read-out: % Enzyme Activity (relative to DMSO controls)
# T12 construct: purchased Reaction Biology (HotSpot contract assay)
# [15] = test system: 382 unique human kinases; assay: biochemical; type: biochemical; settings: for In vitro screening: kinases hit / kinases screened: Figure 3; for number of off-target kinases experimentally identified, In vitro binding (KinomeSCAN): cutoff of >85% inhibition at 10 μM, luminespib and ganetespib large kinome panel, others 16-kinase panel
# [16] = molecular target: T13, PEAK1 (Homo sapiens, UniProt Q9H792); assay: HotSpot in vitro kinase radiometric assay; type: biochemical; settings: Fig 6C median ± standard deviation (n = 2)
# T13 construct: purchased Reaction Biology (HotSpot contract assay)
# [17] = molecular target: T14, ABL2/ARG (Homo sapiens, UniProt P42684); assay: HotSpot in vitro kinase radiometric assay; type: biochemical
# T14 construct: purchased Reaction Biology (HotSpot contract assay)
# [18] = molecular target: DDR1 (Homo sapiens, UniProt Q08345); assay: HotSpot in vitro kinase radiometric assay; type: biochemical; parameters: purchased Reaction Biology (HotSpot contract assay)
# [19] = test system: HSP90AA1; settings: average of reported values; ref ChEMBL23 (accessed: 23/08/2018); cited from earlier work
# [20] = 10 μM, Fig 6C median ± standard deviation (n = 2)
# [21] = ABL1, single replicate curves, read-out: IC50
# [22] = radiometric 10-point concentration-response, n = 3, read-out: in vitro biochemical IC50, ABL1
# [23] = radiometric 10-point concentration-response, n = 3, read-out: in vitro biochemical IC50, TRKA-TFG
# [24] = ABL2, single replicate curves, read-out: IC50
# [25] = radiometric 10-point concentration-response, n = 3, read-out: in vitro biochemical IC50, ABL2
# [26] = radiometric 10-point concentration-response, n = 3, read-out: in vitro biochemical IC50, DDR1
# T12 sequence (P11802 whole entry): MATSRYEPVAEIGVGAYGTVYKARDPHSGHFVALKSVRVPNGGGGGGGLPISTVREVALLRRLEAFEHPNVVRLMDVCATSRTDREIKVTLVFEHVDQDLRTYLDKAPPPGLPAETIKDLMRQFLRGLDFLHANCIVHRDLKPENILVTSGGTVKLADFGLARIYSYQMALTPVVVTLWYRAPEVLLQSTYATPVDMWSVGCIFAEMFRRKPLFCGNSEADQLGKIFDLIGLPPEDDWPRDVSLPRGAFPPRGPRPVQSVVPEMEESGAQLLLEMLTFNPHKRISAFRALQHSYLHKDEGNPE
# T11 sequence (P50750 whole entry): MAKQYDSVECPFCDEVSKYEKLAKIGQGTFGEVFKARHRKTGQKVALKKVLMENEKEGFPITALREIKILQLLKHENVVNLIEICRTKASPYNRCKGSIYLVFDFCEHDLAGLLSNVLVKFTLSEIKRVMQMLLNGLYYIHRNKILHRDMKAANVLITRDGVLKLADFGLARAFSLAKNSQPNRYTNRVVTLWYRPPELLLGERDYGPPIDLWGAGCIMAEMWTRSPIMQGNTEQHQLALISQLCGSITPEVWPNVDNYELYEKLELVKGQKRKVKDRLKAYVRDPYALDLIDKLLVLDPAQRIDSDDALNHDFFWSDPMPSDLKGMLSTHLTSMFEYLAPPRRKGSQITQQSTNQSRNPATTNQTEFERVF
# T10 sequence (Q9UIK4 whole entry): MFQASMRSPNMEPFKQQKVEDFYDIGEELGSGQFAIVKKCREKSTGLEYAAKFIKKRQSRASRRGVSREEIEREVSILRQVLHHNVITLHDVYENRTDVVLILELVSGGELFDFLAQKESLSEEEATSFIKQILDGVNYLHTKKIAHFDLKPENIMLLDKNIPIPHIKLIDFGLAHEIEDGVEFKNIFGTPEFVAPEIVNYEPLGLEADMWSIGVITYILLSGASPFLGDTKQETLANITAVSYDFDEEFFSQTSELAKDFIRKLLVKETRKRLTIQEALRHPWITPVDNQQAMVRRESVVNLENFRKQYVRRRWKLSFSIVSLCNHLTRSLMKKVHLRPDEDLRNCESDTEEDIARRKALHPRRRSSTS
# Chain of DDR1 (Q08345 19-913): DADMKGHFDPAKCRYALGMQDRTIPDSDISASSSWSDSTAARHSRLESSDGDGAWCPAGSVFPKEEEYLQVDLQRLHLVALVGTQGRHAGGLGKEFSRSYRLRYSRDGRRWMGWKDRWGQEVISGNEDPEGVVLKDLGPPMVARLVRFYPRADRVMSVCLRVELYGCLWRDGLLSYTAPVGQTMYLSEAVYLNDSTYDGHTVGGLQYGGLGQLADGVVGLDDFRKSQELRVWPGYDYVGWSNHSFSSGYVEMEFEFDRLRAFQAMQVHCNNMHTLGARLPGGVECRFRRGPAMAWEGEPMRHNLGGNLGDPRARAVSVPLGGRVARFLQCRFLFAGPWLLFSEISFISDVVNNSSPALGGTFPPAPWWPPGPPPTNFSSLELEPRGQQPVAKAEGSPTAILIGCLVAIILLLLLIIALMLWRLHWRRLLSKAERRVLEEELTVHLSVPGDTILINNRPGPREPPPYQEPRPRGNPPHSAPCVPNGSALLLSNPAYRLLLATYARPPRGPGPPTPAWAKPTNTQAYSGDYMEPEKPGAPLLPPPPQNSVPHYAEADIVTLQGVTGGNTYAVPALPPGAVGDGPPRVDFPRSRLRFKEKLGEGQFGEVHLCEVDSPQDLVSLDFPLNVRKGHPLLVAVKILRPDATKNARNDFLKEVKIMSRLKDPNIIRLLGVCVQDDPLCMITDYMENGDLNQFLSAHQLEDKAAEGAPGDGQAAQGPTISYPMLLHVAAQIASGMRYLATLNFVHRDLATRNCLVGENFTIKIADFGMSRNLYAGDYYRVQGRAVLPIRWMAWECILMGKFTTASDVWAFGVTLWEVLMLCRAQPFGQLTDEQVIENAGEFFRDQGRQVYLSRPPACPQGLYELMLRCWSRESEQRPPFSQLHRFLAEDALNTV
# T1 sequence (Q92734+P04629 fused): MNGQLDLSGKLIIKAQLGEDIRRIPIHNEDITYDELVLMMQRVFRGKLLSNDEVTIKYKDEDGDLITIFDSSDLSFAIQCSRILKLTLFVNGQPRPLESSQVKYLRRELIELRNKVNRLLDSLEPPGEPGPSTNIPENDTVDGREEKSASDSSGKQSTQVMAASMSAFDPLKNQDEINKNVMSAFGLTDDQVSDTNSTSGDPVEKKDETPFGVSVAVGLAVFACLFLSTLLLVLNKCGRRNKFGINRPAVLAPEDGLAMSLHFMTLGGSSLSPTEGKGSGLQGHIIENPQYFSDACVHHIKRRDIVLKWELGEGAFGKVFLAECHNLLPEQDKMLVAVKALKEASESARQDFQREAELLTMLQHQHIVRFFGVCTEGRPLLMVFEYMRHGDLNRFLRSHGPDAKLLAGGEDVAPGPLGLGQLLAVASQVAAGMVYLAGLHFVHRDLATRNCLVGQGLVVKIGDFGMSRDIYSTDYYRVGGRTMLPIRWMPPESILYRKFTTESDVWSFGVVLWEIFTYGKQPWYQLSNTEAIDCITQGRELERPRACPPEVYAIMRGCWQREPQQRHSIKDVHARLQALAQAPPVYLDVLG
# Chain of ABL1 (P00519 whole entry): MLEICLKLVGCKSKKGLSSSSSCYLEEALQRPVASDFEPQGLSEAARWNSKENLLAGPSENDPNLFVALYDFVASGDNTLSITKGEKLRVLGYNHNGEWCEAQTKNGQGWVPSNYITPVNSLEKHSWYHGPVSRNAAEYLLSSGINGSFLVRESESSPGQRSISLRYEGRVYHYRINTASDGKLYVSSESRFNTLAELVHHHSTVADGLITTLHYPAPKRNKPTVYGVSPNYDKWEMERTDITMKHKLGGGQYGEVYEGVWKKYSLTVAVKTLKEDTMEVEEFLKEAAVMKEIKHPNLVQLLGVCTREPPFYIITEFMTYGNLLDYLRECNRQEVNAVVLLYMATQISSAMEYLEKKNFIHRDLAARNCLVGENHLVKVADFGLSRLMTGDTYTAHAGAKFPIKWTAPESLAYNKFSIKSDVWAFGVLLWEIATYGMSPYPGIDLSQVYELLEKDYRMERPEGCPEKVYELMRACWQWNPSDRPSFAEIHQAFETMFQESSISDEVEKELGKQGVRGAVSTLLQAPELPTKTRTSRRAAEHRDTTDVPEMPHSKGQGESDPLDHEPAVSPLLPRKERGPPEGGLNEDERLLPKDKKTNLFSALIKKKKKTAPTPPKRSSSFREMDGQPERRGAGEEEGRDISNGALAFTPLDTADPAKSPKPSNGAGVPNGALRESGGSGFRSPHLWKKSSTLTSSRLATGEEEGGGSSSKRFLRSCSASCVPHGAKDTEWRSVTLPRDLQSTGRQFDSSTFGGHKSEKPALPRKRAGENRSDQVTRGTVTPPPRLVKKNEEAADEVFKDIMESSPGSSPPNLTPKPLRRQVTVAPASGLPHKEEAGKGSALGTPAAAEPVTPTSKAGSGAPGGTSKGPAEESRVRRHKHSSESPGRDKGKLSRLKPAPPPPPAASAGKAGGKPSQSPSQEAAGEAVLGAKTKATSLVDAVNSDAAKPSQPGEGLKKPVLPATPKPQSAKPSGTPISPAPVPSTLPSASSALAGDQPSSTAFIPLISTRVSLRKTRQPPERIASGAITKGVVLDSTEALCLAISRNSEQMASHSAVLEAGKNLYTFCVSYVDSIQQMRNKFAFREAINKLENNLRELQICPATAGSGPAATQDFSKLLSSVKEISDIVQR
# T14 sequence (P42684 whole entry): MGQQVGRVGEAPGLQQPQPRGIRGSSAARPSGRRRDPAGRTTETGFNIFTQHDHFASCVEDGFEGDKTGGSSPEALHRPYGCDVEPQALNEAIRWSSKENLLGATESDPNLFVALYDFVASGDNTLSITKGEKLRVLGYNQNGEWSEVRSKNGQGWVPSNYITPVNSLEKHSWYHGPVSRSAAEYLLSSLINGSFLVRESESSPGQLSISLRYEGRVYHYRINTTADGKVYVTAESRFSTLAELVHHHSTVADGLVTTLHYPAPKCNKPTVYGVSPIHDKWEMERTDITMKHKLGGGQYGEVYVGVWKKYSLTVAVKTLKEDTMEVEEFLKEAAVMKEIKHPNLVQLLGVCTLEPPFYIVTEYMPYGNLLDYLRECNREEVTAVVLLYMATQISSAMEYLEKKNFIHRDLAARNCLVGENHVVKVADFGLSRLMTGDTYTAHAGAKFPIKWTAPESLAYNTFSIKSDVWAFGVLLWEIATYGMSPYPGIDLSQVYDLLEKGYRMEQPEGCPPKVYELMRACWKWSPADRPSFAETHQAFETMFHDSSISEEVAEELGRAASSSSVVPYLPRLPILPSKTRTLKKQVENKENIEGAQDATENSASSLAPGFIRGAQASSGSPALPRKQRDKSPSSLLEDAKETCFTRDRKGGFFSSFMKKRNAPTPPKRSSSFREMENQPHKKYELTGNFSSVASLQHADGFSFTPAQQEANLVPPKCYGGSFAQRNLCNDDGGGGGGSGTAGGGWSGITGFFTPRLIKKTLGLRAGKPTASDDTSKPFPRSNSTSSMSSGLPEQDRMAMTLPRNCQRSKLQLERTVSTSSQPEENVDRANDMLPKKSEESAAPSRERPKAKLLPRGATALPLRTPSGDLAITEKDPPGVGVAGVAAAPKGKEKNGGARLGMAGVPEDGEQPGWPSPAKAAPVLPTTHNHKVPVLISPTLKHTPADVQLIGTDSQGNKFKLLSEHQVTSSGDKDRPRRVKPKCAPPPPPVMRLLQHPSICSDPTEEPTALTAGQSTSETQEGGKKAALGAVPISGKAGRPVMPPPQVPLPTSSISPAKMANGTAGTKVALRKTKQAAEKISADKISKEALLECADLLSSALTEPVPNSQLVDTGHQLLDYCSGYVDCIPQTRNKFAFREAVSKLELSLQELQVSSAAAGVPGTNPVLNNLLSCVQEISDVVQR
smiles,measurement,setting,value
CCNC(=O)c1noc(-c2cc(C(C)C)c(O)cc2O)c1-c1ccc(CN2CCOCC2)cc1 [Luminespib],% inhibition at 10 uM: ABL1,[1]; [20],93 ± 1%
same,HILLSLOPE,"[1]; ABL1, single replicate curves",-3.07 and -2.62 and -3.14
same,IC50,[1]; [21],3570 nM and 3390 nM and 3220 nM
same,IC50,[1]; [22],3390 nM
same,inhibition at 10 µM,"[1]; read-out: % inhibition at 10 uM: ABL1, 10 μM, Fig 6C median ± standard deviation (n = 2)",> 85%
same,IC50,[2]; [23],> 10000 nM
same,"pActivity, HSP90AB1",[3],8.09
same,inhibition at 10 µM,[4],35%
same,inhibition at 10 µM,[5],62 ± 1%
same,inhibition at 10 µM,[6],78 ± 1%
same,inhibition at 10 µM,[7],71 ± 2%
same,inhibition at 10 µM,[8]; read-out: % inhibition at 10 uM: LYN B,74 ± 1%
same,inhibition at 10 µM,[9],65 ± 2%
same,% Enzyme Activity (relative to DMSO controls),[10],112.00%
same,remaining activity at 10 µM,[10]; read-out: % Enzyme Activity (relative to DMSO controls),113%
same,% Enzyme Activity (relative to DMSO controls),[11]; CDK2/Cyclin A1,96.40%
same,remaining activity at 10 µM,[11]; CDK2/Cyclin A1,97.4%
same,% Enzyme Activity (relative to DMSO controls),[11]; CDK2/cyclin E,98.18%
same,remaining activity at 10 µM,[11]; CDK2/cyclin E,101%
same,% Enzyme Activity (relative to DMSO controls),[12],94.93%
same,remaining activity at 10 µM,[12],95.4%
same,% Enzyme Activity (relative to DMSO controls),[13],103.10%
same,remaining activity at 10 µM,[13],105%
same,% Enzyme Activity (relative to DMSO controls),[14],101.56%
same,remaining activity at 10 µM,[14],102%
same,number of kinase off-targets inhibited by more than 50% at 10 μM,[15]; 10 μM,14
same,number of native kinases inhibited by more than 85% at 10 μM,[15]; 10 μM,two
same,% Enzyme Activity (relative to DMSO controls),"[15]; ALK (T1151-L1152insT), [ATP] 20 µM, compound 10 uM",108.18% and 107.06%
same,% Enzyme Activity (relative to DMSO controls),"[15]; ALK-TPM3, [ATP] 15 µM, compound 10 uM",105.28% and 105.22%
same,% Enzyme Activity (relative to DMSO controls),"[15]; BRAF (T599_V600insT), 10 uM",98.93% and 97.05%
same,% Enzyme Activity (relative to DMSO controls),"[15]; BRAF-FAM131B (Fex2Bex9), 10 uM",111.02% and 110.19%
same,% Enzyme Activity (relative to DMSO controls),"[15]; EGFR (d746-750/C797S), 10 uM",93.95% and 93.48%
same,% Enzyme Activity (relative to DMSO controls),"[15]; ERBB2 (V777_G778insCG), 10 uM",103.65% and 102.78%
same,% Enzyme Activity (relative to DMSO controls),"[15]; FGFR1OP-FGFR1, [ATP] 10 µM, compound 10 uM",103.05% and 103.02%
same,% Enzyme Activity (relative to DMSO controls),"[15]; FLT3 (ITD), [ATP] 30 µM, compound 10 uM",91.11% and 89.12%
same,In vitro screening: kinases hit / kinases screened,[15],2/382
same,% Enzyme Activity (relative to DMSO controls),"[15]; KSR1 (A635F), 10 uM",100.08% and 96.91%
same,% Enzyme Activity (relative to DMSO controls),"[15]; LYN B, [ATP] 20 µM, compound 10 uM",26.10% and 25.22%
same,% Enzyme Activity (relative to DMSO controls),"[15]; PKCb2, 10 uM",102.18% and 101.94%
same,% Enzyme Activity (relative to DMSO controls),"[15]; ROS1-GOPC, [ATP] 15 µM, compound 10 uM",101.12% and 99.93%
same,% Enzyme Activity (relative to DMSO controls),"[15]; TRKA-TFG (TRK-T3), [ATP] 20 µM, compound 10 uM",85.72% and 85.69%
same,% Enzyme Activity (relative to DMSO controls),"[15]; TRKA-TPM3, [ATP] 50 µM, compound 10 uM",90.74% and 88.03%
same,% Enzyme Activity (relative to DMSO controls),"[15]; TRKA-TPR, [ATP] 50 µM, compound 10 uM",90.04% and 89.94%
same,% Enzyme Activity (relative to DMSO controls),"[15]; c-Kit (d557-558), [ATP] 10 µM, compound 10 uM",63.45% and 62.37%
same,"number of off-target kinases experimentally identified, In vitro binding (KinomeSCAN)",[15],2
same,% inhibition at 10 uM: PEAK1,[16]; 10 μM,70 ± 1%
same,inhibition at 10 µM,"[16]; read-out: % inhibition at 10 uM: PEAK1, 10 μM",> 70%
same,% inhibition at 10 uM: ABL2,[17]; [20],92 ± 0%
same,HILLSLOPE,"[17]; ABL2, single replicate curves",-2.11 and -2.06 and -1.92
same,IC50,[17]; [24],4570 nM and 4330 nM and 4120 nM
same,IC50,[17]; [25],4340 nM
same,inhibition at 10 µM,"[17]; read-out: % inhibition at 10 uM: ABL2, 10 μM, Fig 6C median ± standard deviation (n = 2)",> 85%
same,IC50,[18]; [26],> 10000 nM
same,inhibition at 10 µM,"[18]; read-out: % inhibition at 10 uM: DDR1, 10 μM, Fig 6C median ± standard deviation (n = 2)",15 ± 1%
same,"pActivity, HSP90AA1",[19],8.01
CC(C)c1cc(-c2n[nH]c(=O)n2-c2ccc3c(ccn3C)c2)c(O)cc1O [Ganetespib],HILLSLOPE,"[1]; ABL1, single replicate curves",-0.99 and -0.93 and -0.96
same,IC50,[1]; [21],625 nM and 519 nM and 539 nM
same,IC50,[1]; [22],561 nM
same,inhibition at 1 µM,"[1]; read-out: % inhibition of ABL1 at 1 μM, 1 μM, secondary screening",> 80%
same,HILLSLOPE,"[2]; TRKA-TFG, single replicate curves",-1.03 and -1.06 and -1.02
same,IC50,"[2]; TRKA-TFG, single replicate curves, read-out: IC50",328 nM and 331 nM and 326 nM
same,IC50,[2]; [23],329 nM
same,inhibition at 1 µM,"[2]; read-out: % inhibition of TRKA-TFG at 1 μM, 1 μM, secondary screening",> 80%
same,inhibition at 10 µM,"[2]; read-out: % inhibition of TRKA-TFG at 10 μM, 10 μM, kinome profiling",> 85%
same,"pActivity, HSP90AB1",[3],8.3
same,% inhibition at 10 uM: LYN B,[8],not inhibited
same,remaining activity at 10 µM,[11]; CDK2/Cyclin A1,108%
same,remaining activity at 10 µM,[11]; CDK2/cyclin E,93.7%
same,remaining activity at 10 µM,[12],96.6%
same,remaining activity at 10 µM,[13],100%
same,remaining activity at 10 µM,[14],53.8%
same,number of kinases with inhibition of catalytic activity below 1 μM,[15],4
same,number of native kinases inhibited by more than 85% at 10 μM,[15]; 10 μM,20
same,In vitro screening: kinases hit / kinases screened,[15],21/382
same,"number of off-target kinases experimentally identified, In vitro binding (KinomeSCAN)",[15],21
same,HILLSLOPE,"[17]; ABL2, single replicate curves",-0.77 and -0.90 and -0.92
same,IC50,[17]; [24],174 nM and 230 nM and 240 nM
same,IC50,[17]; [25],215 nM
same,inhibition at 1 µM,"[17]; read-out: % inhibition of ABL2 at 1 μM, 1 μM, secondary screening",> 85%
same,HILLSLOPE,"[18]; DDR1, single replicate curves",-0.94 and -1.03 and -0.91
same,IC50,"[18]; DDR1, single replicate curves, read-out: IC50",361 nM and 363 nM and 289 nM
same,IC50,[18]; [26],338 nM
same,inhibition at 1 µM,"[18]; read-out: % inhibition of DDR1 at 1 μM, 1 μM, secondary screening",> 85%
